Source: patent publication US20190029257A1, “APPLICATION FOR HERBICIDE-TOLERANT PROTEIN” (BEIJING DABEINONG TECHNOLOGY GROUP CO., LTD., priority 2016, published 2019)

Legend:
Type in all cases: in vivo
[1] = system: wild-type Arabidopsis thaliana plants; assay: Herbicide tolerance of Arabidopsis thaliana plants (spray, resistance classes counted)
Description: (§1) T1 transformants were initially selected from the background of untransformed seeds using a glufosinate selection scheme. About 40000 T1 seeds were screened, and 380 T1 positive transformants (PAT gene) were identified with a transformation efficiency of about 0.95%. The plants that were transformed with the recombinant expression vector DBN100632 were Arabidopsis thaliana plants having an ALT-1-01 nucleotide sequence located in the cytoplasm introduced (At cytoplasmic ALT-1-01), and the plants that were transformed with the recombinant expression vector DBN100631 were Arabidopsis thaliana plants having an ALT-1-01 nucleotide sequence located in the chloroplast introduced (At chloroplastic ALT-1-01); the plants that were transformed with the recombinant expression vector DBN100634 were Arabidopsis thaliana plants having an ALT-2-01 nucleotide sequence located in the cytoplasm introduced (At cytoplasmic ALT-2-01), and the plants that were transformed with the recombinant expression vector DBN100633 were Arabidopsis thaliana plants having an ALT-2-01 nucleotide sequence located in the chloroplast introduced (At chloroplastic ALT-2-01); and the plants that were transformed with the recombinant expression vector DBN100636 were Arabidopsis thaliana plants having an ALT-3-01 nucleotide sequence located in the cytoplasm introduced (At cytoplasmic ALT-3-01), and the plants that were transformed with the recombinant expression vector DBN100635 were Arabidopsis thaliana plants having an ALT-3-01 nucleotide sequence located in the chloroplast introduced (At chloroplastic ALT-3-01). The herbicide tolerance effects of At cytoplasmic ALT-1-01 T1 plants, At chloroplastic ALT-1-01 T1 plants, At cytoplasmic ALT-2-01 T1 plants, At chloroplastic ALT-2-01 T1 plants, At cytoplasmic ALT-3-01 T1 plants, At chloroplastic ALT-3-01 T1 plants and wild-type Arabidopsis thaliana plants on halosulfuron-methyl were detected (14 days after sowing), respectively.
(§2) At cytoplasmic ALT-1-01 T1 plants, At chloroplastic ALT-1-01 T1 plants, At cytoplasmic ALT-2-01 T1 plants, At chloroplastic ALT-2-01 T1 plants, At cytoplasmic ALT-3-01 T1 plants, At chloroplastic ALT-3-01 T1 plants and wild-type Arabidopsis thaliana plants were sprayed with halosulfuron-methyl (34 g ai/ha, 1-fold field concentration) and a blank solvent (water), respectively. Plants were counted for the resistance situations 14 days after spraying: those having a consistent growth status with the blank solvent (water) group after 14 days were classified as highly resistant plants, those having a bolting height less than ½ of that of the blank solvent (water) group after 14 days were classified as moderately resistant plants, those still not capable of bolting after 14 days were classified as poorly resistant plants, and those dead after 14 days were classified as non-resistant plants. Since each Arabidopsis thaliana T1 plant was an independent transformation event, a significant difference in individual T1 responses could be expected at a given dose.
At cytoplasmic ALT-1-01 T1 plants, At chloroplastic ALT-1-01 T1 plants, At cytoplasmic ALT-2-01 T1 plants, At chloroplastic ALT-2-01 T1 plants, At cytoplasmic ALT-3-01 T1 plants, At chloroplastic ALT-3-01 T1 plants and wild-type Arabidopsis thaliana plants in Example 4 were sprayed with iodosulfuron-methyl (10 g ai/ha, 1-fold field concentration), mesosulfuron (14 g ai/ha, 1-fold field concentration) and oxasulfuron (60 g ai/ha, 1-fold field concentration), respectively, in addition to halosulfuron-methyl (34 g ai/ha, 1-fold field concentration) and the blank solvent (water). […]

[2] = system: At chloroplastic ALT-1-01 T1 plants; assay: Herbicide tolerance of Arabidopsis thaliana T1 plants (spray, resistance classes counted); details: 18 g ai/ha (1x Hal.); number of plants 14 days after spraying; Total 31
Description: as §1
as §2, with “At cytoplasmic ALT-1-01 T1 plants, At chloroplastic ALT-1-01 T1 plants, At cytoplasmic ALT-2-01 T1 plants, At chloroplastic ALT-2-01 T1 plants, At cytoplasmic ALT-3-01 T1 plants, At chloroplastic ALT-3-01 T1 plants and wild-type Arabidopsis thaliana plants were sprayed with halosulfuron-methyl (34 g ai/ha, 1-fold field concentration) and a blank solvent (water), respectively.” left out
(§3) […] Plants were counted for the resistance situation 14 days after spraying: those having a consistent growth status with the blank solvent (water) group after 14 days were classified as highly resistant plants, those having a bolting height less than ½ of that of the blank solvent (water) group after 14 days were classified as moderately resistant plants, those still not capable of bolting after 14 days were classified as poorly resistant plants, and those dead after 14 days were classified as non-resistant plants. Since each Arabidopsis thaliana T1 plant was an independent transformation event, a significant difference in individual T1 responses could be expected at a given dose.

[3] = system: At chloroplastic ALT-3-01 T1 plants; assay: as above; details: 18 g ai/ha (1x Hal.); number of plants 14 days after spraying; Total 30
Description: as §1
as §3, with “situations” for “situation”
as §3

[4] = system: At cytoplasmic ALT-1-01 T1 plants; assay: as above; details: 18 g ai/ha (1x Hal.); number of plants 14 days after spraying; Total 31
Description: as §1
as §3, with “situations” for “situation”
as §3

[5] = system: At cytoplasmic ALT-3-01 T1 plants; assay: as above; details: 18 g ai/ha (1x Hal.); number of plants 14 days after spraying; Total 28
Description: as §1
as §3, with “situations” for “situation”
as §3

[6] = system: At cytoplasmic ALT-2-01 T1 plants; assay: as above; details: 18 g ai/ha (1x Hal.); number of plants 14 days after spraying; Total 28
Description: as §1
as §3, with “situations” for “situation”
as §3

[7] = system: At chloroplastic ALT-2-01 T1 plants; assay: as above; details: 18 g ai/ha (1x Hal.); number of plants 14 days after spraying; Total 31
Description: as §1
as §3, with “situations” for “situation”
as §3

[8] = 18 g ai/ha (1x Hal.), number of plants 14 days after spraying, Total 32

COC(=O)c1c(Cl)nn(C)c1S(=O)(=O)NC(=O)Nc1nc(OC)cc(OC)n1 [halosulfuron-methyl, 3-chlorine-5-(4,6-dimethoxypyrimidine-2-aminocarbonylaminosulphonyl)-1-methylpyrazole-4-carboxylic acid methyl ester]
Highly resistant [1, 8]: 0 | Moderately resistant [1, 8]: 0 | Non-resistant [1, 8]: 32 | Poorly resistant [1, 8]: 0 | tolerance of the plants to the herbicide ([1]; 34 g ai/ha, summary of Table 1 and FIG. 4): none of the wild-type Arabidopsis thaliana plants was tolerant | Highly resistant [2]: 1 | Moderately resistant [2]: 2 | Non-resistant [2]: 7 | Poorly resistant [2]: 5 | Highly resistant [3]: 1 | Moderately resistant [3]: 6 | Non-resistant [3]: 5 | Poorly resistant [3]: 5 | Moderately resistant [4]: 6 | Non-resistant [4]: 15 | Poorly resistant [4]: 5 | Highly resistant [5]: 1 | Moderately resistant [5]: 6 | Non-resistant [5]: 5 | Poorly resistant [5]: 5 | Highly resistant [6]: 1 | Moderately resistant [6]: 6 | Non-resistant [6]: 5 | Poorly resistant [6]: 4 | Highly resistant [7]: 1 | Moderately resistant [7]: 4 | Non-resistant [7]: 5 | Poorly resistant [7]: 7
